Experimental data taken from patent US20190346463A1, “COMPOSITIONS AND METHOD FOR DETERMINING INSULIN RESISTANCE USING NON-ESTERIFIED FATTY ACID ANALYSIS” (The Penn State Research Foundation, priority 2016, published 2019).

Assay: compartmental model of NEFA trafficking in response to a glucose challenge (frequently sampled intravenous glucose tolerance test, FAs measured by GC-MS)
Type: in vivo
Details: greater in IR (p=0.05); mean [95% CI] 55% [14, 76]
Excerpt: In general the present disclosure involves analysis of NEFA trafficking by determining kinetic parameters that include, but are not necessarily limited to, the fractional rate of NEFA appearance (Ra), the rate of NEFA disappearance (kNEFA), threshold for glucose-induced suppression (tG), and IC50 for glucose inhibition of NEFA production (gIC50). Those skilled in the art will recognize that each of these parameters is known and can be determined using a variety of established approaches. In this regard the presence or absence, qualitative and quantitative amounts of, and kinetic parameters for one or more NEFAs in a biological sample can be sample determined using, for example, chromatographic methods, such as column chromatography, including High Performance Liquid Chromatography (HPLC) and gas chromatography, and spectroscopy methods including mass spectrometry, nuclear magnetic resonance spectroscopy, infrared spectroscopy, positron emission tomography and other approaches, such as those described in “A novel minimal model to describe NEFA kinetics following an intravenous glucose challenge” Ray C. Boston, Peter J. Moate, American Journal of Physiology—Regulatory, Integrative and Comparative Physiology Apr 2008, 294 (4) R1140-R1147. […]
This Example reflects an ancillary study. […] Six FAs were measured by GC-MS (myristic, palmitic, palmitoleic, stearic, oleic, and linoleic acids). […]

CCCCCCCCCCCCCCCCCC(=O)O [stearate, stearic acid]
kNEFA in IR versus healthy subjects: 55%
